Read-outs that look alike come from different tables or passages of the source.
Tests used:
[1] = test system: zebrafish embryos and larvae; conditions: for Maximum-tolerated concentration (MTC): highest concentration with no phenotypic abnormalities, followed to 9 dpf; for Phenotypic effects above MTC after 24 hours (average penetrance at least 50%): at the concentration in parentheses
Method: Zebrafish embryos of the AB wild-type strain (originally obtained from the Zebrafish International Resource Center, Eugene, Oregon, USA) were raised at 28°C. Zebrafish husbandry, embryo collection, and embryo and larva maintenance were performed as described, [21]. Toxicity assays were standardly performed in 24-well microtiter plates (wrapped with Parafilm to limit solvent evaporation) using 10 embryos per well in 1 ml of 0.3× Danieau's medium (17 mM NaCl, 2 mM KCl, 0.12 mM MgSO4, 1.8 mM Ca(NO3)2 and 1.5 mM HEPES, pH 7.6). Each experiment was repeated 3 times for a total of 30 embryos or larvae analyzed per solvent per developmental staged tested. Data were only recorded for experiments in which the percentage of normal embryos or larvae in the control group was at least 90%. […] In determining the maximum tolerated concentration (MTC) for each solvent and carrier, all post-exposure embryos and larvae were allowed to develop in larva medium to 9 dpf, so as to detect any deleterious effects appearing after this 24-hour window. Solvents and carriers were obtained from the following suppliers: acetone (Chemlab, Zedelgem, Belgium), acetonitrile (Acros Organics, Geel, Belgium), albumin (BSA, Sigma-Aldrich, Bornem, Belgium), butanone (Riedel-de Haën, Seelze, Germany), cyclodextrin (2- hydroxypropyl-beta-cyclodextrin, Sigma-Aldrich), dimethyl formamide (Acros), DMSO (Agros), ethanol (Fisher Scientific, Doornik, Belgium), glycerol (Acros), isopropanol (Chemlab), methanol (Chemlab), polyethylene glycol-400 (Fluka, Bornem, Belgium), propylene glycol (Certa, Eigenbrakel, Belgium), solketal (Merck, Overijse, Belgium). Statistical analyses were done using chi-square in Microsoft Excel.
Twelve solvents and 2 carriers – chosen based solely on their potential utility for the solubilization and delivery of a structurally diverse range of small molecules – were analyzed for their effects on zebrafish embryos and larvae. The solvents included acetone, acetonitrile, butanone, dimethyl formamide, DMSO, ethanol, glycerol, isopropanol, methanol, polyethylene glycol (PEG-400), propylene glycol, and solketal, and the carriers included albumin (BSA) and cyclodextrin (2-hydroxypropyl-beta-cyclodextrin, or HPBCD). […] For this initial study, the effects of a 24-hour exposure to each solvent and carrier was analyzed using embryos and larvae at the following developmental stages: 2–4 cell, 4 hours-post fertilization (hpf), and 1, 2, 3, 4, and 7 days post-fertilization (dpf).

[2] = test system: zebrafish; parameters: method as in PMID 18646521; conditions: 0.01% acetone; cited from earlier work
[3] = test system: rat embryos; conditions: cited from earlier work
[4] = exposure for 24 hours beginning at 1 dpf
[5] = exposure for 24 hours beginning at 2 dpf
[6] = exposure for 24 hours beginning at 2–4 cell stage
[7] = exposure for 24 hours beginning at 3 dpf
[8] = exposure for 24 hours beginning at 4 dpf
[9] = exposure for 24 hours beginning at 4 hpf
[10] = exposure for 24 hours beginning at 5 dpf
[11] = exposure for 24 hours beginning at 7 dpf

Row | Compound | Lowest concentration at which an average penetrance of at least 50% was observed for the phenotypic effects ([1]; 24 hours exposure from 7 dpf) [%] | Maximum-tolerated concentration (MTC) [1, 4] [%] | Maximum-tolerated concentration (MTC) [1, 5] [%] | Maximum-tolerated concentration (MTC) [1, 6] [%] | Maximum-tolerated concentration (MTC) [1, 7] [%] | Maximum-tolerated concentration (MTC) [1, 8] [%] | Maximum-tolerated concentration (MTC) [1, 9] [%] | Maximum-tolerated concentration (MTC) [1, 10] [%] | Maximum-tolerated concentration (MTC) [1, 11] [%] | Lowest concentration at which an average penetrance of at least 50% was observed for the phenotypic effects ([1]; 24 hours exposure from 1 dpf) [%] | Lowest concentration at which an average penetrance of at least 50% was observed for the phenotypic effects ([1]; 24 hours exposure from 2 dpf) [%] | Lowest concentration at which an average penetrance of at least 50% was observed for the phenotypic effects ([1]; 24 hours exposure from 3 dpf) [%] | Lowest concentration at which an average penetrance of at least 50% was observed for the phenotypic effects ([1]; 24 hours exposure from 4 dpf) [%] | Lowest concentration at which an average penetrance of at least 50% was observed for the phenotypic effects ([1]; 24 hours exposure from 4 hpf) [%] | Lowest concentration at which an average penetrance of at least 50% was observed for the phenotypic effects ([1]; 24 hours exposure from 5 dpf) [%] | Phenotypic effects above MTC after 24 hours (average penetrance at least 50%) ([1]; exposure from 1 dpf) | Phenotypic effects above MTC after 24 hours (average penetrance at least 50%) ([1]; exposure from 3 dpf) | Phenotypic effects above MTC after 24 hours (average penetrance at least 50%) ([1]; exposure from 4 dpf) | Phenotypic effects above MTC after 24 hours (average penetrance at least 50%) ([1]; exposure from 5 dpf) | Phenotypic effects above MTC after 24 hours (average penetrance at least 50%) ([1]; exposure from 7 dpf) | also measured
1 | CC(C)=O [Acetone, acetone] | 0.5 | 1.5 | 1.5 | 2 | ≥2.5 | 1.5 | 2 | <0.5 | <0.5 |  |  |  |  |  |  |  |  |  |  |  | Maximum-tolerated concentration (MTC) ([1]; exposure for 24 hours beginning at 3 dpf, listed as acetone): ≥ 2.5%; Toxicity of negative controls with solvent [2]: no signs of toxicity
2 | CC#N [Acetonitrile, acetonitrile] | 0.5 | 1 |  | <0.5 | 1 |  |  |  |  | 2.5 | 1.5 | 1.5 | 1.5 | 1.5 | 1 | DD PE | PE SB | IC PE | IC PE | IC PE | Effect on cleavage-stage embryos ([1]; 0.5% (lowest concentration examined), after 24 hours of exposure): completely lethal; Phenotypic effects above MTC after 24 hours (average penetrance at least 50%) ([1]; exposure from 4 hpf): AP IC IP NO SO; Minimum embryotoxic concentration [3]: 40 mM
3 | CC1(C)OCC(CO)O1 (stereo not drawn) [Solketal] | 0.5 | 0.5 | 0.5 | <0.5 | 0.5 | <0.5 | 0.5 | <0.5 | <0.5 | 1 | 1 | 1 | 0.5 | 1 | 0.5 | AP BH IC IM NB PE | AH IC IM HJ PE | BC LP | NB LP SB+ | NB LP | Maximum-tolerated concentration (MTC) ([1]; exposure for 24 hours beginning at 2–4 cell stage, listed as solketal): < 0.5%; Phenotypic effects above MTC after 24 hours (average penetrance at least 50%) ([1]; exposure from 2 dpf): AP BH IC PE
4 | Albumin (BSA): bovine serum albumin (BSA), carrier |  | <0.5 | 0.5 | <0.5 | 0.5 |  | <0.5 | ≥2.5 | ≥2.5 |  |  | 1.5 | 1.5 | 0.5 |  |  |  | IC PE |  |  | Delay in development relative to control ([1]; 0.5% from 4-cell stage, embryos at 1 dpf, morphologically normal): up to 9 hours; Lowest concentration at which an average penetrance of at least 50% was observed for the phenotypic effects ([1]; 24 hours exposure from 2–4 cell stage): 0.5%; Maximum-tolerated concentration (MTC) ([1]; exposure for 24 hours beginning at 5 dpf, listed as BSA): ≥ 2.5%; Maximum-tolerated concentration (MTC) ([1]; exposure for 24 hours beginning at 7 dpf, listed as BSA): ≥ 2.5%

From PMC3474771, “Evaluation of 14 Organic Solvents and Carriers for Screening Applications in Zebrafish Embryos and Larvae” (PLoS ONE, 2012)
